{
  "source": "patent US20160058775A1",
  "about": "“COMPOSITION AND FORMULATION OF ANTIMICROBIAL AGENTS, PROCESSES THEREOF AND METHODS FOR TREATING MICROBIAL INFECTIONS” (VYOME BIOSCIENCES PVT. LTD., priority 2013, published 2016)",
  "test_system": "M. furfur",
  "excerpt": "The time-kill assays were used to evaluate efficacy of antimicrobial agents, either singly or in combination, and the results can help in establishing the dose and/or time of application of the active. The time-kill assays were used to study both concentration-dependent and time-dependent antimicrobial action.\nM. furfur cells were suspended in Sabouraud Dextrose Broth (SDB) at inoculum concentration of 7×10^7 cells/ml. Cells were taken from a freshly growing (3-7 days old) plate and cell suspension was vortexed to remove the cell clumps as much as possible. Sterile media were supplemented with chloramphenicol (0.25 mg/ml), cycloheximide (0.04 mg/ml) and olive oil (2%). The media were then supplemented with appropriate concentrations (two-fold serial dilutions using SDB) of unmodified zinc pyrithione API (10 μg/ml and 50 μg/ml) with different concentrations of Capmul 908-P (0%, 1%, 3%, 5% & 9%). The cultures were incubated on a tube rotator at 34° C. in CO2 incubator.\nTo measure the colony forming units (CFU), at different time points, aliquots (50 μl) of Malassezia cultures were serially diluted with SDBT medium (SDB containing 0.1% Triton X-100) and plated on SDA plates. The plates are incubated at 34° C. in CO2 incubator for 3 days. The viable colonies were counted and converted to CFU/ml.",
  "note": "Read-outs that look alike come from different tables or passages of the source.",
  "data": [
    {"substance": "zinc pyrithione [ZPT]", "values": [
      {"measurement": "Log CFU Count of M. furfur", "setting": "ZPT 10 μg/ml, Capmul 908-P 30 μg/ml, 6 hrs", "value": 6.50},
      {"measurement": "Log CFU Count of M. furfur", "setting": "ZPT 10 μg/ml, Capmul 908-P 30 μg/ml, 24 hrs", "value": 5.94},
      {"measurement": "Log CFU Count of M. furfur", "setting": "ZPT 10 μg/ml, Capmul 908-P 30 μg/ml, 48 hrs", "value": 5.06},
      {"measurement": "Log CFU Count of M. furfur", "setting": "ZPT 10 μg/ml, Capmul 908-P 50 μg/ml, 6 hrs", "value": 6.37},
      {"measurement": "Log CFU Count of M. furfur", "setting": "ZPT 10 μg/ml, Capmul 908-P 50 μg/ml, 24 hrs", "value": 5.57},
      {"measurement": "Log CFU Count of M. furfur", "setting": "ZPT 10 μg/ml, Capmul 908-P 50 μg/ml, 48 hrs", "value": 4.80},
      {"measurement": "Log CFU Count of M. furfur", "setting": "ZPT 10 μg/ml, Capmul 908-P 90 μg/ml, 6 hrs", "value": 6.33},
      {"measurement": "Log CFU Count of M. furfur", "setting": "ZPT 10 μg/ml, Capmul 908-P 90 μg/ml, 24 hrs", "value": 5.55},
      {"measurement": "Log CFU Count of M. furfur", "setting": "ZPT 10 μg/ml, Capmul 908-P 90 μg/ml, 48 hrs", "value": 4.77},
      {"measurement": "Log CFU Count of M. furfur", "setting": "ZPT 10 μg/ml, Capmul 908-P nil, 6 hrs", "value": 6.56},
      {"measurement": "Log CFU Count of M. furfur", "setting": "ZPT 10 μg/ml, Capmul 908-P nil, 24 hrs", "value": 6.13},
      {"measurement": "Log CFU Count of M. furfur", "setting": "ZPT 10 μg/ml, Capmul 908-P nil, 48 hrs", "value": 5.27},
      {"measurement": "Log CFU Count of M. furfur", "setting": "ZPT 50 μg/ml, Capmul 908-P 30 μg/ml, 6 h", "value": 6.06},
      {"measurement": "Log CFU Count of M. furfur", "setting": "ZPT 50 μg/ml, Capmul 908-P 30 μg/ml, 24 h", "value": 4.69},
      {"measurement": "Log CFU Count of M. furfur", "setting": "ZPT 50 μg/ml, Capmul 908-P 30 μg/ml, 48 h", "value": 3.25},
      {"measurement": "Log CFU Count of M. furfur", "setting": "ZPT 50 μg/ml, Capmul 908-P 50 μg/ml, 6 h", "value": 5.94},
      {"measurement": "Log CFU Count of M. furfur", "setting": "ZPT 50 μg/ml, Capmul 908-P 50 μg/ml, 24 h", "value": 4.62},
      {"measurement": "Log CFU Count of M. furfur", "setting": "ZPT 50 μg/ml, Capmul 908-P 50 μg/ml, 48 h", "value": 3.04},
      {"measurement": "Log CFU Count of M. furfur", "setting": "ZPT 50 μg/ml, Capmul 908-P 90 μg/ml, 6 h", "value": 5.52},
      {"measurement": "Log CFU Count of M. furfur", "setting": "ZPT 50 μg/ml, Capmul 908-P 90 μg/ml, 24 h", "value": 3.63},
      {"measurement": "Log CFU Count of M. furfur", "setting": "ZPT 50 μg/ml, Capmul 908-P 90 μg/ml, 48 h", "value": 2.08},
      {"measurement": "Log CFU Count of M. furfur", "setting": "ZPT 50 μg/ml, Capmul 908-P nil, 6 h", "value": 6.43},
      {"measurement": "Log CFU Count of M. furfur", "setting": "ZPT 50 μg/ml, Capmul 908-P nil, 24 h", "value": 5.39},
      {"measurement": "Log CFU Count of M. furfur", "setting": "ZPT 50 μg/ml, Capmul 908-P nil, 48 h", "value": 3.92},
      {"measurement": "Anti-microbial activity towards M. furfur with increasing concentration of propylene glycol monocaprylate (Capmul 908-P)", "setting": "time-kill, Tables 12 and 13", "value": "gets potentiated"}
    ]}
  ]
}
